According to ChEMBL document CHEMBL4814071, “Synthesis and antibacterial study of cell-penetrating peptide conjugated trifluoroacetyl and thioacetyl lysine modified peptides” (Eur J Med Chem, 2021):
Structures can show the parent of a compound that is named as a salt. Activity calls are given as the source filed them. The rule behind the calls is not given here. *1 amine or outer side, *2 acyl side, *3 side chain or, on linkers, in order; H or OH if unused. Where a SMILES comes first, the peptide text is derived from it. Bridges are numbered along the chain shown (N, C = ends). Side-chain parts run from the residue outwards. [ ]: non-standard residue; d: D form. The star is where a group is joined. NH(2-Me-phenyl) = Cc1ccccc1N*; X1 = CC[C@H](C)CCCCC(=O)*; Dab = NCC[C@H](N)C(=O)O; CO = O=C([*:1])[*:2]; Tfa = O=C(C(F)(F)F)*

How the values were obtained:
[1] = test system: Staphylococcus aureus; assay: Antibiofilm activity against Staphylococcus aureus assessed as biofilm eradication incubated for 24 hrs by crystal violet staining assay; assay type: functional
[2] = test system: Lipid bilayer; assay: Binding affinity to bacterial inner membrane mimic DOPE/DOPG (3:1) large unilamellar vesicles assessed as calcein leakage at 2.5 uM by fluorescence based assay
[3] = test system: HeLa; assay: Cytotoxicity against human HeLa cells assessed as reduction in cell viability incubated for 48 hrs by MTT assay; assay type: cell-based
[4] = test system: Staphylococcus aureus; assay: Antibacterial activity against Staphylococcus aureus assessed as reduction in microbial growth after 24 hrs by microplate reader method; assay type: functional
[5] = test system: Lipid bilayer; assay: Binding affinity to bacterial inner membrane mimic DOPE/DOPG (3:1) large unilamellar vesicles assessed as calcein leakage at 20 uM by fluorescence based assay
[6] = test system: Staphylococcus aureus; assay: Antibacterial activity against Staphylococcus aureus assessed as reduction in microbial growth after 24 hrs in presence of streptomycin by microplate reader method; assay type: functional
[7] = test system: Staphylococcus aureus; assay: Potentiation of streptomycin-induced antibacterial activity against Staphylococcus aureus assessed as fold change in streptomycin MIC incubated for 24 hrs by microplate reader method; assay type: functional
[8] = test system: Pseudomonas aeruginosa; assay: Synergistic antibacterial activity against Pseudomonas aeruginosa assessed as fractional inhibitory concentration index incubated for 24 hrs in presence of Polymyxin B; assay type: functional
[9] = test system: Escherichia coli; assay: Antibiofilm activity against Escherichia coli assessed as as inhibition of biofilm formation incubated for 48 hrs by crystal violet staining assay; assay type: functional
[10] = test system: Escherichia coli; assay: Synergistic antibacterial activity against Escherichia coli assessed as fractional inhibitory concentration index incubated for 24 hrs in presence of Polymyxin B; assay type: functional
[11] = test system: Escherichia coli; assay: Antibiofilm activity against Escherichia coli assessed as biofilm eradication incubated for 24 hrs by crystal violet staining assay; assay type: functional
[12] = test system: Cell membrane; assay: Disruption of membrane integrity in Escherichia coli assessed as cellular leakage at 2 times MIC by TEM analysis
[13] = test system: BE(2)-C; assay: Cytotoxicity against human BE(2)-C cells assessed as reduction in cell viability incubated for 48 hrs by MTT assay; assay type: cell-based
[14] = test system: Escherichia coli; assay: Antibiofilm activity against Escherichia coli assessed as biofilm eradication at 2XMBEC incubated for 12 hrs by SYTO9/PI staining based microscopic analysis; assay type: functional, organism-based
[15] = Hemolytic activity against mouse RBC at 1000 uM measured after 1 hr by microplate reader analysis; assay type: cell-based, Erythrocyte; details: mouse red blood cells (erythrocytes), read-out: Activity
[16] = test system: Staphylococcus aureus; assay: Antibiofilm activity against Staphylococcus aureus assessed as biofilm eradication at 2XMBEC incubated for 12 hrs by SYTO9/PI staining based microscopic analysis; assay type: functional, organism-based
[17] = test system: Cell membrane; assay: Disruption of membrane integrity in Escherichia coli at 2 times MIC measured after 20 mins by SEM analysis
[18] = test system: Staphylococcus aureus; assay: Antibiofilm activity against Staphylococcus aureus assessed as inhibition of biofilm formation incubated for 48 hrs by crystal violet staining assay; assay type: functional
[19] = test system: Cell membrane; assay: Disruption of membrane integrity in Staphylococcus aureus at 2 times MIC measured after 20 mins by SEM analysis
[20] = Inhibition of transcriptional machinery using Puc19-lacCONS plasmid DNA and Escherichia coli RNA polymerase-sigma70 holoenzyme at 10 uM incubated for 35 mins followed by NTP addition for 30 mins by spectrofluorometer analysis; assay type: functional; details: time 65.0 min
[21] = test system: Pseudomonas aeruginosa; assay: Antibacterial activity against Pseudomonas aeruginosa assessed as reduction in microbial growth after 24 hrs by microplate reader method; assay type: functional
[22] = test system: Lipid bilayer; assay: Binding affinity to mammalian membrane mimic DOPC/40% cholesterol assessed as calcein leakage at 20 uM by fluorescence based assay; assay type: ADME
[23] = biological target: NAD-dependent histone deacetylase SIR2 (Saccharomyces cerevisiae S288c) (UniProt P06700); assay: Inhibition of yeast sirtuin2-mediated Ura3 transcriptional silencing at telomeric locus assessed as yeast killing at 50 uM incubated for 72 hrs in presence of FOA by absorbance based analysis
[24] = test system: Pseudomonas aeruginosa; assay: Antibacterial activity against Pseudomonas aeruginosa assessed as reduction in microbial growth after 24 hrs in presence of polymyxin B by microplate reader method; assay type: functional
[25] = test system: Cell membrane; assay: Disruption of membrane integrity in Escherichia coli at 2 times MIC by TEM analysis
[26] = test system: Escherichia coli; assay: Antibacterial activity against Escherichia coli assessed as reduction in microbial growth after 24 hrs in presence of polymyxin B by microplate reader method; assay type: functional
[27] = test system: Cell membrane; assay: Disruption of membrane integrity in Staphylococcus aureus at 2 times MIC by TEM analysis
[28] = test system: Pseudomonas aeruginosa; assay: Potentiation of polymyxin B-induced antibacterial activity against Pseudomonas aeruginosa assessed as polymyxin B MIC incubated for 24 hrs by microplate reader method; assay type: functional
[29] = test system: Lipid bilayer; assay: Binding affinity to bacterial inner membrane mimic POPE/POPG (3:1) LUVs assessed as increase in intensity by one-dimensional 19F NMR based analysis
[30] = test system: Escherichia coli; assay: Antibacterial activity against Escherichia coli assessed as reduction in microbial growth after 24 hrs by microplate reader method; assay type: functional
[31] = test system: Staphylococcus aureus; assay: Potentiation of streptomycin-induced antibacterial activity against Staphylococcus aureus assessed as streptomycin MIC incubated for 24 hrs by microplate reader method; assay type: functional
[32] = test system: Staphylococcus aureus; assay: Synergistic antibacterial activity against Staphylococcus aureus assessed as fractional inhibitory concentration index incubated for 24 hrs in presence of streptomycin; assay type: functional
[33] = test system: Escherichia coli; assay: Potentiation of polymyxin B-induced antibacterial activity against Escherichia coli assessed as polymyxin B MIC incubated for 24 hrs by microplate reader method; assay type: functional
[34] = Inhibition of transcriptional machinery using Puc19-lacCONS plasmid DNA and Escherichia coli RNA polymerase-sigma70 holoenzyme at 40 uM incubated for 35 mins followed by NTP addition for 30 mins by spectrofluorometer analysis; assay type: functional; details: time 65.0 min

Sequence of NAD-dependent histone deacetylase SIR2 (Saccharomyces cerevisiae S288c) (P06700 whole entry): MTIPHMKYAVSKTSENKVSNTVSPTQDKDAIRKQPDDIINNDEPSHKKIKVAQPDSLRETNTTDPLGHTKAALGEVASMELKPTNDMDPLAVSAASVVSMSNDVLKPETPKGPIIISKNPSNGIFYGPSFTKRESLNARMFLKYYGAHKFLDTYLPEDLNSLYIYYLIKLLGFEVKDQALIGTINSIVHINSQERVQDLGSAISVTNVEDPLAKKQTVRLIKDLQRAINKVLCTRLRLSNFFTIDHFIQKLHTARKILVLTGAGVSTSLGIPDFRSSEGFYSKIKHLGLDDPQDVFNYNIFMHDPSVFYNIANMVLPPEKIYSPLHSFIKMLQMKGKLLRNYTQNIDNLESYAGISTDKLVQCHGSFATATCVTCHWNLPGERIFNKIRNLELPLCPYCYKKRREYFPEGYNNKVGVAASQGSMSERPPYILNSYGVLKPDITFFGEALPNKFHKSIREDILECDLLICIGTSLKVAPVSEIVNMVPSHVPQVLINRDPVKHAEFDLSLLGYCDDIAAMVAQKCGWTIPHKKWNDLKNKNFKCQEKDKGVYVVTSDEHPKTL

SMILES	MBEC [1]	IC50 [3]	MIC [4]	Activity [5]	MIC [6]	fold change (FC) [7]	fractional inhibitory concentration index (FICI) [8]	MBIC [9]	fractional inhibitory concentration index (FICI) [10]	MBEC [11]	IC50 [13]	Activity [14]	hemolysis at 1 h, 1000 µM [15]	Activity [16]	Activity [17]	MBIC [18]	Activity [19]	MIC [21]	Activity [22]	MIC [30]	also measured
CC(=O)N[C@@H](Cc1ccc(O)cc1)C(=O)NCC(=O)N[C@@H](CCCNC(=N)N)C(=O)N[C@@H](CCCCN)C(=O)N[C@@H](CCCCN)C(=O)N[C@@H](CCCNC(=N)N)C(=O)N[C@@H](CCCNC(=N)N)C(=O)N[C@@H](CCC(N)=O)C(=O)N[C@@H](CCCNC(=N)N)C(=O)N[C@@H](CCCNC(=N)N)C(=O)N[C@@H](CCCNC(=N)N)C(=O)NCC(=O)NCC(=O)NCC(=O)N[C@@H](CCCCN)C(=O)NCC(=O)N[C@@H](CC(C)C)C(=O)N[C@@H](CCCNC(=N)N)C(=O)N[C@@H](CCCCNC(=O)C(F)(F)F)C(=O)N[C@@H](Cc1ccccc1)C(=O)NCC(=O)N[C@@H](C)C(=O)N[C@@H](CCCCNC(=O)C(F)(F)F)C(=O)N[C@@H](CCCNC(=N)N)C(=O)N[C@@H](Cc1cnc[nH]1)C(=O)N[C@@H](CCCNC(=N)N)C(=O)N[C@@H](CS)C(N)=O (Ac-YGRKKRRQRRRGGGKGLRK(Tfa)FGAK(Tfa)RHRC-NH2)	3.2 µM	31.6 µM	0.2 µM	Active	0.05 µM	6	0.3	15.6 µM	0.73	62.5 µM	23.4 µM	Active	< 5%	Active	Active	0.8 µM	Active	25 µM	< 20%	1.5 µM	Activity [2]: 90%; Activity [12]: Active; inhibition [20]: 100%; inhibition [23]: Active; MIC [24]: 6.25 µM; Activity [25]: Active; MIC [26]: 0.63 µM; Activity [27]: Active; MIC [28]: 0.05 µM; Activity [29]: Active; MIC [31]: 0.38 µM; fractional inhibitory concentration index (FICI) [32]: 0.22; MIC [33]: 0.1 µM
CC[C@H](C)CCCCC(=O)N[C@@H](CCN)C(=O)N[C@H](C(=O)N[C@@H](CCN)C(=O)N[C@H]1CCNC(=O)[C@H]([C@@H](C)O)NC(=O)[C@H](CCN)NC(=O)[C@H](CCN)NC(=O)[C@H](CC(C)C)NC(=O)[C@@H](Cc2ccccc2)NC(=O)[C@H](CCN)NC1=O)[C@@H](C)O (X1-[Dab]T[Dab][Dab][Dab][dF]L[Dab][Dab]T; lactam 4-C)	–	–	–	–	–	–	–	–	–	–	–	–	–	–	–	–	–	0.15 µM	–	0.09 µM	–
CN[C@@H]1[C@H](O[C@H]2[C@H](O[C@H]3[C@H](O)[C@@H](O)[C@H](N=C(N)N)[C@@H](O)[C@@H]3N=C(N)N)O[C@@H](C)[C@]2(O)C=O)O[C@@H](CO)[C@H](O)[C@H]1O [STREPTOMYCIN]	–	–	2.2 µM	–	–	–	–	–	–	–	–	–	–	–	–	–	–	–	–	–	–
CC(=O)N[C@@H](Cc1ccc(O)cc1)C(=O)NCC(=O)N[C@@H](CCCNC(=N)N)C(=O)N[C@@H](CCCCN)C(=O)N[C@@H](CCCCN)C(=O)N[C@@H](CCCNC(=N)N)C(=O)N[C@@H](CCCNC(=N)N)C(=O)N[C@@H](CCC(N)=O)C(=O)N[C@@H](CCCNC(=N)N)C(=O)N[C@@H](CCCNC(=N)N)C(=O)N[C@@H](CCCNC(=N)N)C(=O)NCC(=O)NCC(=O)NCC(=O)N[C@@H](CCCCN)C(=O)NCC(=O)N[C@@H](CC(C)C)C(=O)N[C@@H](CCCNC(=N)N)C(=O)N[C@@H](CCCCNC(=O)Nc1ccccc1C)C(=O)N[C@@H](Cc1ccccc1)C(=O)NCC(=O)N[C@@H](C)C(=O)N[C@@H](CCCCN)C(=O)N[C@@H](CCCNC(=N)N)C(=O)N[C@@H](Cc1cnc[nH]1)C(=O)N[C@@H](CCCNC(=N)N)C(=O)N[C@@H](CS)C(=O)O (Ac-YGRKKRRQRRRGGGKGLRK([CO-NH(2-Me-phenyl)])FGAKRHRC-OH)	–	–	0.2 µM	–	–	–	–	–	–	–	–	–	–	–	–	–	–	25 µM	–	1.5 µM	–
CC(=O)N[C@@H](CCCCN)C(=O)NCC(=O)N[C@@H](CC(C)C)C(=O)N[C@@H](CCCNC(=N)N)C(=O)N[C@@H](CCCCNC(=O)C(F)(F)F)C(=O)N[C@@H](Cc1ccccc1)C(=O)NCC(=O)N[C@@H](C)C(=O)N[C@@H](CCCCNC(=O)C(F)(F)F)C(=O)N[C@@H](CCCNC(=N)N)C(=O)N[C@@H](Cc1cnc[nH]1)C(=O)N[C@@H](CCCNC(=N)N)C(=O)N[C@@H](CS)C(N)=O (Ac-KGLRK(Tfa)FGAK(Tfa)RHRC-NH2)	12.5 µM	84.4 µM	1.5 µM	70%	0.63 µM	6	0.36	inactive	0.19	inactive	81.6 µM	Active	< 5%	Active	inactive	6.3 µM	inactive	> 250 µM	< 20%	125 µM	inhibition [34]: Active; inhibition [23]: Active; MIC [24]: 25 µM; MIC [26]: 7.81 µM; MIC [28]: 0.1 µM; Activity [29]: Active; MIC [31]: 0.38 µM; fractional inhibitory concentration index (FICI) [32]: 0.3; MIC [33]: 0.05 µM
CC(=O)N[C@@H](Cc1ccc(O)cc1)C(=O)NCC(=O)N[C@@H](CCCNC(=N)N)C(=O)N[C@@H](CCCCN)C(=O)N[C@@H](CCCCN)C(=O)N[C@@H](CCCNC(=N)N)C(=O)N[C@@H](CCCNC(=N)N)C(=O)N[C@@H](CCC(N)=O)C(=O)N[C@@H](CCCNC(=N)N)C(=O)N[C@@H](CCCNC(=N)N)C(=O)N[C@@H](CCCNC(=N)N)C(=O)O	–	–	1.5 µM	–	–	–	–	–	–	–	–	–	–	–	–	–	–	> 100 µM	–	50 µM	–
